Values of other authors, collected in PMC12308805, “Ultrahigh-Throughput Virtual Screening Strategies against PPI Targets: A Case Study of STAT Inhibitors” (Journal of Chemical Information and Modeling, 2025).
Square brackets hold non-standard residues; d marks the D form. Peptide text beside a SMILES is read from it. * marks the point of attachment. aIle = CC[C@@H](C)[C@H](N)C(=O)O; AMC = Cc1cc(=O)oc2cc(N*)ccc12; Boc = CC(C)(C)OC(=O)*

Tested on: STAT3
Conditions: sheet 6QHD_actives_decoys, retrospective screening set for STAT3 SH2 domain (PDB 6QHD); decoys are presumed inactives, not tested; ref DUD-E; cited from earlier work

Row | Structure (SMILES) | Type
1 | CN(Cc1cnc2nc(N)nc(N)c2n1)c1ccc(C(=O)N[C@H](CCC(=O)NCCNC(=O)CCCC[C@@H]2SC[C@@H]3NC(=O)N[C@@H]32)C(=O)O)cc1 [Decoy821] | Inactive (Decoy)
2 | COc1ccccc1OCCNC[C@@H](O)Cn1c2ccccc2c2c(OC[C@@H](O)CNCCOc3ccccc3OC)cccc21 [Decoy936] | Inactive (Decoy)
3 | CC(=O)O[C@H]1[C@@H](O)[C@@H](O[C@@H](/C=N\c2cnc([N+](=O)[O-])s2)[C@@H](CO)O[C@H](O)/C=N/c2cnc([N+](=O)[O-])s2)O[C@@H](CO)[C@H]1O [Decoy909] | Inactive (Decoy)
4 | CCCOc1ccc([C@H]2C(C(=O)c3c(C)nc4ccccn34)=C(O)C(=O)N2CCN(CC)CC)cc1OCC [Decoy760] | Inactive (Decoy)
5 | COc1ccccc1OCCNC[C@H](O)COc1cccc2c1c1ccccc1n2C[C@H](O)COc1cccc2[nH]c3ccccc3c12 [Decoy900] | Inactive (Decoy)
6 | CC[C@@H](C)[C@H](NC(=O)OC(C)(C)C)C(=O)N[C@@H](CCC(=O)O)C(=O)NCC(=O)N[C@@H](CCCNC(=N)N)C(=O)Nc1ccc2c(C)cc(=O)oc2c1 [Decoy753] (Boc-[aIle]EGR-{AMC}) | Inactive (Decoy)
7 | COc1ccc(C(OC[C@H]2O[C@H](Oc3ccc([N+](=O)[O-])cc3)[C@@H](O)[C@@H](O)[C@@H]2O)(c2ccccc2)c2ccc(OC)cc2)cc1 [Decoy888] | Inactive (Decoy)
8 | CCCCN(C)S(=O)(=O)c1ccc(C(=O)Nc2ccc(S(=O)(=O)Nc3nc(C)cc(C)n3)cc2)cc1 [Decoy757] | Inactive (Decoy)
9 | CC[C@@]1(c2ccccc2)NC(=O)N(CC(=O)NNC(=O)CCN2CCN(c3ccccc3)CC2)C1=O [Decoy766] | Inactive (Decoy)
10 | O=C(O)CCNS(=O)(=O)c1ccc(NCCc2ccc(C(F)(F)F)cc2)c([N+](=O)[O-])c1 [Decoy891] | Inactive (Decoy)
11 | COc1cc(C(=O)O)ccc1O[C@@H]1O[C@H](COC(=O)c2ccc(O)c(O)c2)[C@@H](O)[C@H](O)[C@H]1O [Decoy842] | Inactive (Decoy)
12 | COC(=O)c1sc(NC(=O)CCCS(=O)(=O)c2nc(-c3ccc(OC)c(OC)c3)cc(C(F)(F)F)n2)c(C(N)=O)c1C [Decoy915] | Inactive (Decoy)
13 | COc1cc(C(=O)OC[C@]2(O)CO[C@H](OC[C@@H]3O[C@@H](Oc4c(OC)cc(CO)cc4OC)[C@H](O)[C@H](O)[C@@H]3O)[C@@H]2O)cc(OC)c1O [Decoy800] | Inactive (Decoy)
14 | CCOC(=O)CNC(=O)[C@H](c1ccc(OC)cc1)N(C(=O)c1snc(C(N)=O)c1N)c1cccc(C)c1 [Decoy735] | Inactive (Decoy)
15 | CCOC(=O)c1ccc(NC(=O)C(=O)NCc2ccc(/C=C3\C(=O)N(c4ccc(Cl)c(Cl)c4)C(C)=C3C(=O)OC)o2)cc1 [Decoy846] | Inactive (Decoy)

Same assay, conditions: sheet 6QHD_actives_decoys; known STAT3 actives of the retrospective screening set; ref ChEMBL / literature; cited from earlier work

Row | Structure (SMILES) | Type (known STAT3 active)
16 | CC(C)C[C@H](NC(=O)/C=C/c1ccc(OP(=O)(O)O)cc1)C(=O)N1C[C@H]2C[C@H]2[C@H]1C(=O)N[C@@H](CCC(N)=O)[C@@H](C)O [CHEMBL583725] | Active
17 | NC(=O)C1CCN(C(=O)[C@@H]2Cc3cccc4c3N2C(=O)[C@@H](NC(=O)/C=C/c2ccc(OP(=O)(O)O)cc2)CC4)C1 (some centres unmarked) [CHEMBL515762] | Active
18 | CC(C)C[C@H](NC(=O)/C=C/c1ccc(OP(=O)(O)O)cc1)C(=O)N1CCC[C@H]1C(=O)N[C@H](COCc1ccccc1)COC(N)=O [CHEMBL573902] | Active

Same assay, conditions: sheet 6QHD_actives_decoys; retrospective screening set for STAT3 SH2 domain (PDB 6QHD); […]; ref DUD-E; cited from earlier work

Row | Structure (SMILES) | Type
19 | COc1ccccc1/C=C/C(=O)NC(=S)Nc1ccc(S(=O)(=O)Nc2cc(C)on2)cc1 [Decoy519] | Inactive (Decoy)
20 | O=c1c(C[C@H](O)CN2CCOCC2)c(O)n(C[C@@H](O)CN2CCOCC2)c(=O)n1C[C@H](O)CN1CCOCC1 [Decoy679] | Inactive (Decoy)
21 | CC(=O)Nc1ccc(S(=O)(=O)N[C@@]2(C(F)(F)F)C(=O)N=C3C2=C(O)N=C(S)N3Cc2ccco2)cc1 [Decoy697] | Inactive (Decoy)
22 | Nn1c(SCC(=O)Nc2ccc(S(=O)(=O)Nc3nccs3)cc2)nnc1-c1ccncc1 [Decoy406] | Inactive (Decoy)

Same assay, conditions: sheet 6QHD_actives_decoys; retrospective screening set for STAT3 SH2 domain (PDB 6QHD); decoys generated with DUD-E and presumed inactive, not tested; ref DUD-E; cited from earlier work

Row | Structure (SMILES) | Type
23 | Nc1ccc2cc(S(=O)(=O)O)cc(O)c2c1/N=N/c1ccccc1S(=O)(=O)NCC1CCCCC1 [Decoy501] | Inactive (Decoy)
24 | COc1cc(NS(=O)(=O)c2ccc(NC(=O)c3cccc(COc4cccc(Cl)c4)c3)cc2)nc(OC)n1 [Decoy485] | Inactive (Decoy)
25 | C=C1CC[C@H]2[C@](C)(CO[C@H]3O[C@@H](CO[C@H]4O[C@@H](CO)[C@@H](O)[C@H]4O)[C@@H](O)[C@@H](O)[C@H]3O)[C@@H](O)CC[C@]2(C)[C@H]1CC/C(C)=C\CO [Decoy612] | Inactive (Decoy)
26 | NCCCCCCNc1nc2c(N)ncnc2n1[C@H]1O[C@@H](CO[P@](=O)(O)O[P@](=O)(O)OP(=O)(O)O)[C@@H](O)[C@H]1O [Decoy384] | Inactive (Decoy)
27 | NS(=O)(=O)c1ccc(NC(=O)CSc2ccc(NC(=O)c3cccc([N+](=O)[O-])c3)cc2)cc1 [Decoy391] | Inactive (Decoy)
28 | Nc1nc(OCc2cc(Br)cs2)c2ncn(CCCCCCCCO[C@H]3O[C@@H](CO)[C@@H](O)[C@@H](O)[C@@H]3O)c2n1 [Decoy331] | Inactive (Decoy)
29 | Nn1c(N/N=C/c2ccc([N+](=O)[O-])cc2)nnc1SCC(=O)Nc1ccc(OC(F)(F)F)cc1 [Decoy441] | Inactive (Decoy)
30 | COc1ccccc1NS(=O)(=O)c1cccc(C(=O)NNC(=O)CCn2c(C)csc2=O)c1 [Decoy725] | Inactive (Decoy)
31 | CCOC(=O)c1c(NC(=O)CSc2n[nH]c(N/N=C/c3ccc(F)cc3)n2)sc2c1CCCC2 [Decoy437] | Inactive (Decoy)
32 | Cc1ccc(NC(=O)NC[C@@H](C)Cn2cccn2)cc1NC(=O)NC[C@H](C)Cn1cccn1 [Decoy618] | Inactive (Decoy)
33 | CC(=O)OC[C@@H]1O[C@H](n2c(=O)[nH]c(=O)c3n[nH]nc32)[C@@H](OC(C)=O)[C@H](OC(C)=O)[C@H]1OC(C)=O [Decoy545] | Inactive (Decoy)
34 | CCOC(=O)c1ccc(NC(=O)CSc2nc3cc(C(=O)OC)ccc3c(=O)n2CCN2CCOCC2)cc1 [Decoy371] | Inactive (Decoy)
35 | CCCCCCCCCC(=O)O[C@@H]1[C@@H](O[C@@]2(CO)O[C@@H](CO)[C@@H](O)[C@H]2OC(=O)C(C)C)O[C@@H](CO)[C@@H](OC(=O)C(C)C)[C@H]1OC(=O)C(C)C [Decoy627] | Inactive (Decoy)
36 | O=C(/C=C/c1ccc(O)c2c1[C@@H](C(=O)O[C@@H](Cc1ccc(O)c(O)c1)C(=O)O)[C@H](c1ccc(O)c(O)c1)O2)O[C@H](Cc1ccc(O)c(O)c1)C(=O)O [Decoy572] | Inactive (Decoy)
37 | COc1cc(NS(=O)(=O)c2ccc(NC(=S)NC(=O)/C=C/c3cccc4ccccc34)cc2)ncn1 [Decoy659] | Inactive (Decoy)
38 | O=C(O)CN(CC(=O)O)CC1=C[C@H]2C(=CC1=O)Oc1cc(O)c(CN(CC(=O)O)CC(=O)O)cc1[C@@]21OC(=O)c2ccccc21 [Decoy652] | Inactive (Decoy)
39 | COc1ccc(N([C@@H](C)C(=O)Nc2ccc(S(=O)(=O)Nc3ccc(Cl)c(C(F)(F)F)c3)cc2)S(C)(=O)=O)cc1 [Decoy412] | Inactive (Decoy)
40 | COc1ccccc1OCCNC[C@@H](O)CN(CCOc1ccccc1OC)C[C@H](O)COc1cccc2[nH]c3ccccc3c12 [Decoy707] | Inactive (Decoy)
41 | Nc1nc(OCc2cc(Br)cs2)c2ncn(CCCCCCCCO[C@@H]3O[C@@H](CO)[C@@H](O)[C@@H](O)[C@H]3O)c2n1 [Decoy330] | Inactive (Decoy)
